Measurements: EP1103270B1, “TREATMENT OF AUTOIMMUNE DISEASES IN MAMMALS” (UNIVERSIDAD COMPLUTENSE DE MADRID, priority 1999, dated 2000)

Key:
IL-4 producing cells = assay: Number of IL-4 producing cells (ELISPOT) in spleen and peritoneum of KLH-immunised mice; format: in vivo; conditions: 5 nmol/mouse with second KLH injection, spleen and peritoneum cells two weeks later
mRNA of TNFα = assay: Northern Blot for mRNA of TNFα in macrophages activated with LPS; format: cell-based, rat; conditions: macrophages activated with LPS and exposed to the peptide; Figure 5
Procedure: (§1) • Figure 1 represents the production of TNFα by murine macrophages in culture (5x10^5 cells/ml) stimulated with 10ngr/ml of LPS in the presence or absence of 10^-8M of VIP or ACHPA during the course of 24 hours. • Figure 2 represents the production of TNFα by murine macrophages in culture (5x10^5 cells/ml) after 6 hours of culture with 10ngr/ml of LPS and to which 10^-8M of VIP or ACHPA are added at different times. • Figure 3 represents the production of IL-6 by murine macrophages in culture (5x10^5 cells/ml) stimulated with 10ngr/ml of LPS in the presence or absence of 10^-8M of VIP or ACHPA during the course of 24 hours. • Figure 4 represents the production of IL-6 by murine macrophages in culture (5x10^5 cells/ml) after 6 hours of culture with 10ngr/ml of LPS and to which 10^-8M of VIP or ACHPA are added at different times. • Figure 5 presents the Northern Blot analysis for the presence of mRNA of TNFα and IL-6 in macrophages stimulated with LPS in the presence or absence of VIP or ACHPA (18S represents the corresponding rRNA as total quality control of loaded RNA). • Figure 6 represents the survival in mice injected with 400µgr of LPS and, simultaneously, or after 30 minutes, 1 or 4 hours, with 5 nmol of VIP or ACHPA.
(§2) Macrophages from rat were submitted to the experimental conditions described in examples 1 and 3 and their mRNA was isolated. […]

TNFα [1] = assay: Circulating levels of TNFα in mice after injection of LPS; format: in vivo; conditions: 2 hours after injection of 25 µgr of LPS, simultaneous administration of 5 nmol
Procedure: In an experiment carried out with mice the circulating levels of TNFα 2 hours after injection of 25 µgr of LPS were approximately 4 ngr./ml. Simultaneous administration of 5 nmol of VIP or ACHPA reduced said levels by 60%.

TNFα [2] = assay: Production of TNFα in peritoneal murine macrophages stimulated with LPS, in vitro; format: cell-based
Procedure: as §1
In experiments carried out "in vitro" VIP and ACHPA inhibit the production of TNFα in peritoneal murine macrophages stimulated with LPS. […]

anti-KLH antibodies = assay: Isotype of serum anti-KLH antibodies (ELISA) in KLH-immunised mice; format: in vivo; conditions: 5 nmol/mouse with second KLH injection, serum two weeks after the last immunisation
IL-6 [3] = assay: Production of IL-6 in peritoneal murine macrophages stimulated with LPS, in vitro; format: cell-based
Procedure: In experiments carried out " in vitro" VIP and ACHPA inhibit the production of IL-6 in peritoneal murine macrophages stimulated with LPS. Most of the inhibition reaches values near to 90% and occurs with doses of stimulation of 10 µgr./ml of LPS. […] The inhibitory effect is also observed if the neuropeptides are added after stimulation with LPS, although the degree of inhibition is progressively smaller (see Figure 4).

IL-6 [4] = assay: Circulating levels of IL-6 in mice after injection of LPS; format: in vivo; conditions: two hours after injection of 25 µgr. of LPS, simultaneous administration of 5nmol
From the text: In an experiment carried out in mice the circulating levels of IL-6 two hours after injection of 25 µgr. of LPS were approximately 1.5 ngr./ml. The simultaneous administration of 5nmol of VIP or ACHPA reduced said levels by 60% and 75%, respectively.

mRNA of IL-6 = assay: Northern Blot for mRNA of IL-6 in macrophages activated with LPS; format: cell-based, rat; conditions: macrophages activated with LPS and exposed to the peptide; Figure 5
Procedure: as §1, §2

[5] = Survival of mice injected with a lethal dose of LPS (endotoxic shock); format: in vivo; conditions: mice injected with 400µgr of LPS
Procedure: as §1
An experiment was carried out in which the long-term survival over a period of 4 days was studied for mice injected with 400µgr of LPS. […]

adenylate cyclase hypophysary peptide activator [ACHPA]
increase in the number of IL-4 producing cells compared to untreated mice (IL-4 producing cells): ~20 times | transcripts for TNFα (Northern Blot) (mRNA of TNFα): absence of transcripts | reduction of circulating levels of TNFα (TNFα [1]): 60% | IC50 (TNFα [2]; peritoneal murine macrophages stimulated with LPS, read-out: IC50 (inhibition of the production of TNFα)): 0.08 nM | greatest degree of inhibition of the production of TNFα (TNFα [2]; peritoneal murine macrophages, stimulation with 1-10 ngr./ml of LPS): ~60% | isotype of anti-KLH antibodies detectable in serum (anti-KLH antibodies): only of the IgGl isotype | IC50 (IL-6 [3]; peritoneal murine macrophages stimulated with LPS, read-out: IC50 (inhibition of the production of IL-6)): 0.0086 nM | inhibition of the production of IL-6 (most of the inhibition) (IL-6 [3]; peritoneal murine macrophages, stimulation with 10 µgr./ml of LPS): ~90% | reduction of circulating levels of IL-6 (IL-6 [4]): 75% | transcripts for IL-6 (Northern Blot) (mRNA of IL-6): absence of transcripts | survival rates ([5]; administration up to 1 hour after injection with LPS): ~50% | survival at the end of the experiment ([5]; simultaneous administration of 5 nmol, period of 4 days): 60%
